Test results: patent EP0061341A2, “6-Substituted hexahydroindazolo isoquinolines” (priority 1981, dated 1982)

System: prolactin
Test: Serum prolactin levels in rats, reserpinized and non-reserpinized
Type: in vivo, rats of the Sprague-Dawley strain
Conditions: for Prolactin Levels Non-Reserpinized 1 / Prolactin Levels Non-Reserpinized 2: rats not pretreated with reserpine, compound 1 mg./kg.; for Prolactin Levels Non-Reserpinized 1: run 1; for Prolactin Levels Non-Reserpinized 2: run 2; for Prolactin Levels Reserpinize: reserpine 2.0 mg. i.p. 18 hours before, compound 1 mg./kg. intraperitoneally, serum one hour after treatment
Method: Adult male rats of the Sprague-Dawley strain weighing about 200 g. were housed in an air-conditioned room with controlled lighting (lights on 6 a.m. - 8 p.m.) and fed lab chow and water ad libitum. Each rat received an intraperitoneal.injection of 2.0 mg. of reserpine in aqueous suspension 18 hours before administration of the compound of formula I. The purpose of the reserpine was to keep prolactin levels uniformly elevated. The compounds under test were dissolved in water and were injected intraperitoneally at a 1 mg./kg. dose level. Each compound was administered to a group of 10 rats, and a control group of 10 intact males received an equivalent amount of solvent. One hour after treatment all rats were killed by decapitation, and 150 ul. aliquots of serum were assayed for prolactin.
In addition, prolactin levels were determined in two runs in which the rats were not pretreated with reserpin. The dose level of the drug was maintained at 1 mg./kg.

| SMILES | Prolactin Levels Non-Reserpinized 1 | Prolactin Levels Non-Reserpinized 2 | Prolactin Levels Reserpinize |
| --- | --- | --- | --- |
| COc1cc2c3c(c1OC)-c1n[nH]cc1CC3N(C)CC2 (stereo not shown) [1,2-Dimethoxy-6-methyl-4,5,6,6a,7,9-hexahydroindazolo[7,6,5-ij]isoquinoline] | 36.6±6.6 (P<.02) | 9.0±3.2 | 41.6±7.7 |
| CN1CCc2cc(O)c(O)c3c2C1Cc1c[nH]nc1-3 (stereo not shown) [1,2-Dihydroxy-6-methyl-4,5,6,6a,7,9-hexahydroindazolo[7,6,5-ij]isoquinoline] | 45.2±5.4 (P<.001) | 21.6±3.9 | 36.4±4.9 |
| CCCN1CCc2cc(O)c(O)c3c2C1Cc1c[nH]nc1-3 (racemic) [1,2-Dihydroxy-6-n-propyl-4,5,,6,6a,7,9-hexahydroindazolo[7,6,5-ij]isoquinoline] | 40.0±9.5 (P<.05) | 23.8±2.8 | 49.9±6.0 (P<.01) |
| CN1CCc2cccc3c2C1Cc1c[nH]nc1-3 (stereo not shown) [6-Methyl-4,5,6,6a,7,9-hexahydroindazolo-[7,6,5-ij]isoquinoline] | 19.7±3.1 | 11.8±2.7 | 39.3±7.3 |
| CCN1CCc2cc(OC)c(OC)c3c2C1Cc1c[nH]nc1-3 (stereo not shown) [1,2-Dimethoxy-6-ethyl-4,5,6,6a,7,9-hexahydroindazolo[7,6,5-ij]isoquinoline] | 4.6±0.6 | – | 30.5±4.9 |
| CCCN1CCc2cccc3c2C1Cc1c[nH]nc1-3 (stereo not shown) [6-n-Propyl-4,5,6,6a,7,9-hexahydroindazolo[7,6,5-ij]isoquinoline] | 9.5±1.7 | 7.8±2.6 | 22.6±3.8 |
| C=CCN1CCc2cc(OC)c(OC)c3c2C1Cc1c[nH]nc1-3 (racemic) [l,2-Dimethoxy-6-allyl-4,5,6,6a,7,9-hexahydroindazolo[7,6,5-ij]isoquinoline] | 7.3±1.6 | – | 26.7±2.7 |
